The values below come from US11427869B2, “T cell balance gene expression, compositions of matters and methods of use thereof” (THE BROAD INSTITUTE, INC., priority 2015, dated 2022).

The test system of one test is Th17 cells. The test can be described thus: qPCR of gene expression (cyp51, sc4mol, pathogenicity signature) in Th17 cells with exogenous fatty acid. It is filed as cell-based, mouse. For orientation: Quantitative PCR measures a nucleic acid by following its amplification.
For another test, the target named is T1, Rorγt (Mus musculus, UniProt P51450).
T1 construct: expressed in transfected cells; host or cells: EL4 cells stably transfected with Rorγt vector
T1 sequence (P51450 1-495 isoform P51450-2): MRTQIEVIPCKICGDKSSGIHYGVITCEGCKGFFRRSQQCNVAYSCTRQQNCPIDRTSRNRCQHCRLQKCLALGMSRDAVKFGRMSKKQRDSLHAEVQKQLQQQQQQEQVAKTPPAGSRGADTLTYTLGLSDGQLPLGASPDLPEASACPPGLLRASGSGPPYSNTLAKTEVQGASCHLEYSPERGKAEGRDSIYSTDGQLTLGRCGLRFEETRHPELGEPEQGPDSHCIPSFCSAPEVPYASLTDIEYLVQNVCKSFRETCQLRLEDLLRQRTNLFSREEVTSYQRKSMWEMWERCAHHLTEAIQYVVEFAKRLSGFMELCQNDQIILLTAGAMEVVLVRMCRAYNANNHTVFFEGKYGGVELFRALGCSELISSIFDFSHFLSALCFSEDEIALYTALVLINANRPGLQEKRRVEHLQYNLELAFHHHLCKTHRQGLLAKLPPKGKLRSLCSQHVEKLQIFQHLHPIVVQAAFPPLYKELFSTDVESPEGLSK
The test can be described thus: Dual luciferase reporter assay of Rorγt transcriptional activity in EL4 cells. Format: cell-based. Conditions: in the presence of an agonistic Rorγt ligand. Here is the method: Cells and supernatant were harvested at 96 hours and subjected to MS/LC. Three independent mouse experiments were performed. […] All ChIP and luciferase assay are representative of at least 3 independent experiments.
Three independent experiments were performed.
For orientation: A reporter such as luciferase makes a cellular process visible.

Where [1] appears, read: Th17 cells differentiated with TGF-β1+IL-6.

Each structure is given as a SMILES string.

Turning to `CCCCC/C=C\C/C=C\C/C=C\C/C=C\CCCC(=O)O` [PUFA, arachidonic acid], the “expression of cyp51 and sc4mol mRNA” value in the test with Th17 cells (CD5L−/− Th17 cells (TGF-β1+IL-6), fatty acid 25 uM added at 48h, analyzed at 96h) is on record as “abolished the increased expression of the enzymes”. In addition, in the test with Th17 cells (setting [1]), the “Il22 expression (qPCR)” value is “increased” and the “effector molecule expression of the pathogenicity signature (Il10, Il23r, Ccl5, Csf2, Lag3; qPCR)” value is recorded as “reciprocally regulated”. At Rorγt, the Il10 transactivation entry is “enhanced Il10 transactivation” and the “Rorγt-mediated Il23r transactivation” value is “inhibited Rorγt-mediated Il23r transactivation”.
